Measurements taken from ChEMBL document CHEMBL5465560, “Selectivity Literature for EUbOPEN Chemogenomic Library” (2024).
Each block holds one compound with its values, some of them ahead of it.

Experiments:
[1] = target: Histone-lysine N-methyltransferase, H3 lysine-36 specific (Homo sapiens) (UniProt Q96L73); assay: Selectivity interaction (Methyltransferase screen (radiometric assays, panel of 8 PRMTs, 21 protein lysine methyltransferases, 3 DNA methyltransferases, and one RNA methyltransferase)) EUB0000271b NSD1
Chain of Histone-lysine N-methyltransferase, H3 lysine-36 specific (Homo sapiens) (Q96L73 whole entry): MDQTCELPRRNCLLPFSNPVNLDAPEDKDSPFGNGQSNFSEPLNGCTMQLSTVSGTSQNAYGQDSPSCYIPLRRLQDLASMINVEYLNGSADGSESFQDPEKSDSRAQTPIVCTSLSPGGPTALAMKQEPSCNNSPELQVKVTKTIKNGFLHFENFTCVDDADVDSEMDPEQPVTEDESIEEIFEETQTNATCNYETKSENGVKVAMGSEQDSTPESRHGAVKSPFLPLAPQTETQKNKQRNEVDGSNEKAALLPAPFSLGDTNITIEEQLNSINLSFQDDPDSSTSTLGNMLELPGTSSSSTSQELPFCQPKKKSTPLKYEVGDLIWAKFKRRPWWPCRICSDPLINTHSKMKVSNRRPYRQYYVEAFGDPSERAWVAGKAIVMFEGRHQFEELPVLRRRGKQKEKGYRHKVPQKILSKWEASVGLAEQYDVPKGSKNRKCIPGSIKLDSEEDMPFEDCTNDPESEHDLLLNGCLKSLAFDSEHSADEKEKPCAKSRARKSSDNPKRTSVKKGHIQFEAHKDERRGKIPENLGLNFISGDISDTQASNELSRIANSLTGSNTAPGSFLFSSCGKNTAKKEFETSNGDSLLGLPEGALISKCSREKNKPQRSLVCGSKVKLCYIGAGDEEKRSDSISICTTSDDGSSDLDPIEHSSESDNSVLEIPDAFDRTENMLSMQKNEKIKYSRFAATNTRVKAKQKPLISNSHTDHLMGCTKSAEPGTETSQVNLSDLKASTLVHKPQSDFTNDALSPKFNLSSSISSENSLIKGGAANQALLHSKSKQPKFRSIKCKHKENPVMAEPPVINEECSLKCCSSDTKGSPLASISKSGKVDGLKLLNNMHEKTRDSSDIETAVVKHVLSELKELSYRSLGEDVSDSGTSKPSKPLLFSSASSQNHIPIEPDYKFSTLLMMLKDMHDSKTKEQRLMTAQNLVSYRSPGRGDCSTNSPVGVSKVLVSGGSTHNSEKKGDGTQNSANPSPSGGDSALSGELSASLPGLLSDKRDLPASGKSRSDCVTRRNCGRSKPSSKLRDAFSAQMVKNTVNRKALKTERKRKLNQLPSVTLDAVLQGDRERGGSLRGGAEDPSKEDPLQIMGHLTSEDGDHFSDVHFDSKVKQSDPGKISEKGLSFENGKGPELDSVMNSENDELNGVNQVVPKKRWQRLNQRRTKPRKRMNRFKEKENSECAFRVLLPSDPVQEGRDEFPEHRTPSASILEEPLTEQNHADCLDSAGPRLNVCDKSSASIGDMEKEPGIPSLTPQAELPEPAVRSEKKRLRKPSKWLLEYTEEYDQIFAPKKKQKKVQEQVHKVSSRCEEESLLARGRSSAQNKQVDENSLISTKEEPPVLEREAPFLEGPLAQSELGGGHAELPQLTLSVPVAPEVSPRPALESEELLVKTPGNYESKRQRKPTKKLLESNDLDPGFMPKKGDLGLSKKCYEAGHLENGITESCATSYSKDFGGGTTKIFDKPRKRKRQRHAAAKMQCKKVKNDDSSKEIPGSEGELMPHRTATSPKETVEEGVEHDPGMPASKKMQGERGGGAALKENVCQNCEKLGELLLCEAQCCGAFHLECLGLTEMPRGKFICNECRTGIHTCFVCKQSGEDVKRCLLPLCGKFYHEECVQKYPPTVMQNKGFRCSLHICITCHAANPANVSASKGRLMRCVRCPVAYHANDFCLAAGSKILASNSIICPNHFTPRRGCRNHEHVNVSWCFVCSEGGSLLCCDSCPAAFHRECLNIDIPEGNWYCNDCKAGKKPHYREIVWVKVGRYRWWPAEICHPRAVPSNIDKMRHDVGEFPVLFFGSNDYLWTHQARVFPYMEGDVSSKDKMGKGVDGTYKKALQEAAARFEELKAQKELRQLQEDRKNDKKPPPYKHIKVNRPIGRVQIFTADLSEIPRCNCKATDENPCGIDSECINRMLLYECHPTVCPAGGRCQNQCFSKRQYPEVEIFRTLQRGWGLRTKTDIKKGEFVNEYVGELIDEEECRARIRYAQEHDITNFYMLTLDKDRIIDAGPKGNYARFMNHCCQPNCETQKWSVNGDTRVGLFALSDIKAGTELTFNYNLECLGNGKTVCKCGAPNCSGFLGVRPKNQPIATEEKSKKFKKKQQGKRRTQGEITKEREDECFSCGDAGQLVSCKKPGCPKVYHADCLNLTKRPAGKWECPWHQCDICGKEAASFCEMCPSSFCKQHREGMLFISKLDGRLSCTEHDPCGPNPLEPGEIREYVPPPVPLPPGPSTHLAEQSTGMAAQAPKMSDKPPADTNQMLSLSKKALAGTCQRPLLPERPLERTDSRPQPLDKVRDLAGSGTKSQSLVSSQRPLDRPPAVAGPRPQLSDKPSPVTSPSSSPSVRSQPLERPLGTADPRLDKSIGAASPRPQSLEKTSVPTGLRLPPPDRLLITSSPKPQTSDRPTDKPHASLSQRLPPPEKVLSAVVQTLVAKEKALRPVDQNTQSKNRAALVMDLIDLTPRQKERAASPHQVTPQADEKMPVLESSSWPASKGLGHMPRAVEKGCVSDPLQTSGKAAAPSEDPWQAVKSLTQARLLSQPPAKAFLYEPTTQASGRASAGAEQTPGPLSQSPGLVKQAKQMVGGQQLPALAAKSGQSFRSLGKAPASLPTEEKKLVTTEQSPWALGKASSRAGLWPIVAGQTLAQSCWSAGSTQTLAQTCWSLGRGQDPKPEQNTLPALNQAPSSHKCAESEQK

[2] = target: Mast/stem cell growth factor receptor Kit (Homo sapiens, UniProt P10721); assay: Selectivity interaction (Kinase panel (Eurofins)) EUB0001564a KIT; settings: at 1 µM
[3] = target: Casein kinase I isoform gamma-3 (Homo sapiens) (UniProt Q9Y6M4); assay: Selectivity interaction (KinaseProfiler screening (Millipore)) EUB0000601a CSNK1G3; settings: at 3 µM
[4] = target: T1, Alpha-1B adrenergic receptor (Homo sapiens) (UniProt P35368); assay: Selectivity interaction (GPCR panel (PDSP screen)) EUB0001079a ADRA1B; settings: at 10 µM
T1 sequence (whole entry): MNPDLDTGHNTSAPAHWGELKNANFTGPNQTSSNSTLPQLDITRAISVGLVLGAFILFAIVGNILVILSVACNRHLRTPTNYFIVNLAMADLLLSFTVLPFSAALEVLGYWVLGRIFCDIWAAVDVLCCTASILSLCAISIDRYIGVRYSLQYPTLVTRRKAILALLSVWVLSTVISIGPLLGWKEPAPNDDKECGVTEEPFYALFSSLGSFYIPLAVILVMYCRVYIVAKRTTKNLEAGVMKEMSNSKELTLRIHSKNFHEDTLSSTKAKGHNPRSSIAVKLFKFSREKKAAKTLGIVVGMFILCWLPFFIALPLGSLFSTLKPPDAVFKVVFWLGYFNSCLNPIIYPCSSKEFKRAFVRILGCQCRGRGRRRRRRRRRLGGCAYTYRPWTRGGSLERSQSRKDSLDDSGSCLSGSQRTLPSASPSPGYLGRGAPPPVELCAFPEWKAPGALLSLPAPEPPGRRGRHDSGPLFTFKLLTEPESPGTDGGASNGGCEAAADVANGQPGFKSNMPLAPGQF

[5] = target: Fibroblast growth factor receptor 2 (Homo sapiens) (UniProt P21802); assay: Selectivity interaction (KinomeScan (DiscoverX)) EUB0001079a FGFR2; settings: at 1 µM
[6] = target: T2, Mitogen-activated protein kinase kinase kinase 12 (Homo sapiens) (UniProt Q12852); assay: Selectivity interaction (KinomeScan (DiscoverX)) EUB0000618a MAP3K12; settings: at 10 µM
T2 sequence (whole entry): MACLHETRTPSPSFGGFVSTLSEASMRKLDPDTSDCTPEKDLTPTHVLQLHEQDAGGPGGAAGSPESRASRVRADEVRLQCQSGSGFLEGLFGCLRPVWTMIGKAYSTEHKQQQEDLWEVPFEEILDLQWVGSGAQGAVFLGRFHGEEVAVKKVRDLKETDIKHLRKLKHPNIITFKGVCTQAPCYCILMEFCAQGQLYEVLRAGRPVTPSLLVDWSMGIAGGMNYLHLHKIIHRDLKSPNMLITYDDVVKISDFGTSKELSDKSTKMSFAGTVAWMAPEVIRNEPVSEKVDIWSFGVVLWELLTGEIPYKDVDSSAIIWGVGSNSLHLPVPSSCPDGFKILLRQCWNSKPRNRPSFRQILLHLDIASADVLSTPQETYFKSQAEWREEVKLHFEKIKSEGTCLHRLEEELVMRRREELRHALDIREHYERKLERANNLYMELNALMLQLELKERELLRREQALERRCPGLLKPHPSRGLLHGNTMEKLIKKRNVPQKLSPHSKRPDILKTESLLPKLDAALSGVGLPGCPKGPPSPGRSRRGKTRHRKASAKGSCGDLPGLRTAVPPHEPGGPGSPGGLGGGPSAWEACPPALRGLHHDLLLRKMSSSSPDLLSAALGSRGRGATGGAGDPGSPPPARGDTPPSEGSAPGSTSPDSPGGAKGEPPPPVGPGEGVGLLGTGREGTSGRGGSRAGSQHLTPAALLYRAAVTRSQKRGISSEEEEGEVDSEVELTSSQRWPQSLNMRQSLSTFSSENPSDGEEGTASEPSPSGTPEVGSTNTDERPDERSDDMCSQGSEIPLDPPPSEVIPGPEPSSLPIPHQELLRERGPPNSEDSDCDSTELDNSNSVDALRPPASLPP

[7] = system: Receptor-type tyrosine-protein kinase FLT3 (Homo sapiens), P36888 [UNDEFINED MUTATION]; assay: Selectivity interaction (KinomeScan (DiscoverX)) EUB0000045b FLT3
Chain of Receptor-type tyrosine-protein kinase FLT3 (Homo sapiens), P36888 [UNDEFINED MUTATION] (P36888 whole entry, looked up, change not shown): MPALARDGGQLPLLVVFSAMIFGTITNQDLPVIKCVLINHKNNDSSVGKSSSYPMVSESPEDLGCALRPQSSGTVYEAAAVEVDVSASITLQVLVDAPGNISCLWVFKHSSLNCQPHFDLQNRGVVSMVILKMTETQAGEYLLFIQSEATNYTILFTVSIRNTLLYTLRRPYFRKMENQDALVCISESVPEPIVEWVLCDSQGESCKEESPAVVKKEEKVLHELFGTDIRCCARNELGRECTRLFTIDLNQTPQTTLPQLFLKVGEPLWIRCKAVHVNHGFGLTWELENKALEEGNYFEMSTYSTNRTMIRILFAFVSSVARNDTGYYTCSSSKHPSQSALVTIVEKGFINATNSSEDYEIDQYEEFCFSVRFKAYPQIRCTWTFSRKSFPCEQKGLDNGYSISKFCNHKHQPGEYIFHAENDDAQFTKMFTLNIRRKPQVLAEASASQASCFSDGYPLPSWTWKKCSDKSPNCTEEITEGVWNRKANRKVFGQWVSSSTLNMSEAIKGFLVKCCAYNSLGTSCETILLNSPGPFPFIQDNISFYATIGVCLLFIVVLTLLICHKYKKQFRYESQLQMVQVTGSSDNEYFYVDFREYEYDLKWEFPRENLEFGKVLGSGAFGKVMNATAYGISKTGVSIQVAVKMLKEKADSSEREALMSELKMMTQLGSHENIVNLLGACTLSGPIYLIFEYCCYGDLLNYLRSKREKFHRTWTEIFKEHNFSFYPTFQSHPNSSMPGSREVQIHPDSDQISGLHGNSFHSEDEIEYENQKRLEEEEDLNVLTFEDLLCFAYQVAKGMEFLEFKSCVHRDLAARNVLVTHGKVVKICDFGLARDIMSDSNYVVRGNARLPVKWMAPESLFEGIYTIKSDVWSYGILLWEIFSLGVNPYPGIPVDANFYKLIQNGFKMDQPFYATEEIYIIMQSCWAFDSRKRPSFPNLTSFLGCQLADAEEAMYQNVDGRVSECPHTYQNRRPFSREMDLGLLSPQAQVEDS

[8] = target: T3, Platelet-derived growth factor receptor beta (Homo sapiens, UniProt P09619); assay: Selectivity interaction (KinomeScan (DiscoverX)) EUB0000595a PDGFRB; settings: at 10 µM
T3 sequence (P09619 whole entry): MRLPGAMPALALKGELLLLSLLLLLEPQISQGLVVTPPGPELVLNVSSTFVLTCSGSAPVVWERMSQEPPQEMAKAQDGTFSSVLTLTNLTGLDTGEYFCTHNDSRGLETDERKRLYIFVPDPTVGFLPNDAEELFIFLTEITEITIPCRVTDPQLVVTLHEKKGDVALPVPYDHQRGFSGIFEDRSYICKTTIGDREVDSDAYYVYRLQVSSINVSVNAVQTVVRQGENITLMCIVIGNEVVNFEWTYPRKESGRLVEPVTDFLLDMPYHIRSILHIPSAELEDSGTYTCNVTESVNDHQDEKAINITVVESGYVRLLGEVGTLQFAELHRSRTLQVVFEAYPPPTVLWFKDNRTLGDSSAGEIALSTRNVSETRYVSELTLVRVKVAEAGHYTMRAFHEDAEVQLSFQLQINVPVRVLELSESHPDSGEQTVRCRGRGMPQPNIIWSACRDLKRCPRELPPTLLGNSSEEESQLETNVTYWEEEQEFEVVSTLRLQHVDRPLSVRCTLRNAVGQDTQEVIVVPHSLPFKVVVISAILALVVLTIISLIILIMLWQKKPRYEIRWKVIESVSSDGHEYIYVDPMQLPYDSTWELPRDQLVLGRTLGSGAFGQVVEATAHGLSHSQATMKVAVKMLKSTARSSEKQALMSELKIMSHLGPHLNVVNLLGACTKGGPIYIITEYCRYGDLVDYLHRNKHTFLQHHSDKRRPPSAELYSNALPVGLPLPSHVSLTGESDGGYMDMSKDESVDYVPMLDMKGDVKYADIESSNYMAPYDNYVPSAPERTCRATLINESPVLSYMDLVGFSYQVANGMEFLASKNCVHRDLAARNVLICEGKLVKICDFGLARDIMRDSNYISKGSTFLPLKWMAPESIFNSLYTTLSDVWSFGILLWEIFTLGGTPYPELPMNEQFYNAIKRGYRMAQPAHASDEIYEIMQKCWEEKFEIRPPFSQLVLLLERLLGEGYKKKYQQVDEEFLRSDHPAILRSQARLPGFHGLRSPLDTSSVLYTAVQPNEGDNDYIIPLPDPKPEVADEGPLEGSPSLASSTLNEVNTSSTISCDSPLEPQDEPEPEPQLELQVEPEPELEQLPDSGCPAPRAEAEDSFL

[9] = target: STE20-like serine/threonine-protein kinase (Homo sapiens, UniProt Q9H2G2); assay: Selectivity interaction (ActivX KiNativ screen (kinase selectivity in THP-1 cell lysates)) EUB0000639a SLK; assay type: subcellular; settings: lysate, at 0.01 µM
[10] = target: T4, Cytoplasmic tyrosine-protein kinase BMX (Homo sapiens) (UniProt P51813); assay: Selectivity interaction (KinomeScan (DiscoverX)) EUB0000229b BMX; settings: at 10 µM
T4 sequence (whole entry): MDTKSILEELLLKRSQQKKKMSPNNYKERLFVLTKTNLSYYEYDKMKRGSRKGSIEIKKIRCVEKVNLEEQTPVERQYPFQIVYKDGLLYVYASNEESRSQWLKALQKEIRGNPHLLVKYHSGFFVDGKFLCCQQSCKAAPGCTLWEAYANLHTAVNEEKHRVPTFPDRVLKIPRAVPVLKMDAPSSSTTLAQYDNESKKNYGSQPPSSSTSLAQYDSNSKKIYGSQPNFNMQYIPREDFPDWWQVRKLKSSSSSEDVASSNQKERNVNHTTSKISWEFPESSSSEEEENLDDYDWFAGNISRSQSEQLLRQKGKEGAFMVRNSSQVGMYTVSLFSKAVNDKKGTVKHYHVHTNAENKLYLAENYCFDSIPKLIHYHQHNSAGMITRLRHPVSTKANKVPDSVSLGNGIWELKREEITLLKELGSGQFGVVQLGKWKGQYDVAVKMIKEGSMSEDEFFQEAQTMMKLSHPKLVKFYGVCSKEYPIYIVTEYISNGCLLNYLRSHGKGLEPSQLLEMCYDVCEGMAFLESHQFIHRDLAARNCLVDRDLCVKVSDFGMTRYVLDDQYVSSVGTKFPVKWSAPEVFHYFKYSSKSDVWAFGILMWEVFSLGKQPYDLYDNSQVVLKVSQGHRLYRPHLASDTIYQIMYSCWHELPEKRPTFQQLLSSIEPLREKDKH

[11] = target: Tyrosine-protein kinase Blk (Homo sapiens) (UniProt P51451); assay: Selectivity interaction (ProQinase) EUB0000171b BLK
[12] = system: Hepatocyte growth factor receptor (Homo sapiens), P08581 [Y1235D]; assay: (§1) Selectivity interaction (KinomeScan (DiscoverX)) EUB0000666a MET; settings: at 10 µM
[13] = system: Hepatocyte growth factor receptor (Homo sapiens), P08581 [M1250T]; assay: as §1; settings: at 10 µM
[14] = target: T3, Platelet-derived growth factor receptor beta; assay: Selectivity interaction (KinomeScan (DiscoverX)) EUB0000092b PDGFRB; settings: at 10 µM

SMILES: Cc1cc(C)cc([C@@H]2c3cc(C)ccc3NC(=O)CN2C(=O)c2ccc(Br)s2)c1
% of activity ([1]; at 1 µM): 97%
% of activity ([1]; at 10 µM): 103%

% of inhibition [2]: 22.3%
SMILES: CC[C@@H](Nc1c(C#N)c(-c2ccc(-c3cccc(C)c3F)cc2)nc2cnccc12)C(=O)O [BAY-091]

% of inhibition [3]: 46%
SMILES: CCc1cc(Nc2nccc(-c3c(-c4ccc(OC)c(C(=O)Nc5c(F)cccc5F)c4)nc4ccccn34)n2)c(OC)cc1N1CCC(N2CCN(S(C)(=O)=O)CC2)CC1

SMILES: Nc1cnc(N2CCc3cc(S(=O)(=O)Nc4c(F)cc(Cl)cc4F)cc(N4CCCC4=O)c32)nc1 [TP-020n]
% of inhibition [4]: 4.68%
% of control [5]: 100%

SMILES: O[C@H]1CC[C@H](Nc2ncc3nc(Nc4c(F)cc(F)cc4F)n([C@H]4CCOC4)c3n2)CC1
% of control [6]: 100%

SMILES: C=CC(=O)Nc1cc(-n2c(=O)ccc3cnc4ccc(-c5ccc(NS(C)(=O)=O)cc5)cc4c32)ccc1C
% of control ([7]; at 1 µM): 99%
% of control ([7]; at 10 µM): 100%

SMILES: COCC(=O)NC/C=C/c1ccc2ncnc(Nc3ccc(Oc4ccc(C)nc4)c(C)c3)c2c1 [CP-724714]
% of control [8]: 46%

% of inhibition [9]: -0.7%
SMILES: CC[C@@H]1[C@H](F)C(=O)N[C@@H]1COc1nccc2cc(C(N)=O)c(OC)cc12 [ZIMLOVISERTIB]

SMILES: COc1cc(N(C)c2ccnc3ccc(C(F)(F)F)cc23)cc(OC)c1OC
% binding [10]: 88%

% of control ([11]; at 1 µM): 77%
% of control ([11]; at 5 µM): 81%
SMILES: C=CC(=O)Nc1cccc(C(=O)Nc2ccc(Nc3cc(-c4[nH]c(SC)nc4C)ccn3)cc2)c1

SMILES: O=C(NOC[C@H](O)CO)c1ccc(F)c(F)c1Nc1ccc(I)cc1F
% of control [12]: 100%
% of control [13]: 92%

SMILES: CCC(=O)N1CCN(c2ccc(-n3c(=O)ccc4cnc5ccc(-c6cnc7ccccc7c6)cc5c43)cc2C(F)(F)F)CC1
% of control [14]: 24%
